Results from the OligoGym collection.
“And” between values parts separate entries of the source, which are not always exact repeats. Equal values may be shown once. After the bases stand the sugars from the 5' end (letter, count) and the backbone: PS all phosphorothioate, else s phosphorothioate and o phosphodiester by linkage. Methylation of C is not given here. [mop] = methoxypropylphosphonate linkage; e = 2'-O-(2-methoxyethyl) (MOE); k = constrained ethyl (cEt); d = 2'-deoxy (DNA); m = 2'-O-methyl

Biological target: IRF5
Settings: ASO

Sequence | target mRNA inhibition (KARPAS-229, 4 µM) | further results
GCAAAGGGTGAGTAGG (sugars k3 d10 k3, PS) | 24% | –
GGAGTGAGACGAGCAA (sugars k2 d9 e3 k2, PS) | 25% | –
CTTGTCTAGTGTCATG (sugars k3 d10 k3, PS) | 58% | –
AGGTTCTTGGACTCTC (sugars kkdddddddddkdkdk, PS) | 36% | –
TGTCTAGTGTCATGGA (sugars k2 d9 e3 k2, linkages s4 [mop]1 s10) | – | target mRNA inhibition (A-431, 0.00412 µM): 2%; target mRNA inhibition (A-431, 0.01225 µM): 11%; target mRNA inhibition (A-431, 0.03704 µM): 4%; target mRNA inhibition (A-431, 0.11111 µM): 8%; target mRNA inhibition (A-431, 0.33333 µM): 18%; target mRNA inhibition (A-431, 1 µM): 32%
ACCATTCTATGCCTTT (sugars kekdddddddddeekk, PS) | 51% | –
GGAAGTGAGTCTCAAA (sugars k2 d8 e4 k2, PS) | 34% | –
GTGTATTTCCCTGTCT (sugars kkdddddddddkekek, PS) | 0% | –
ACATCTCCACATCAGT (sugars k2 d8 e4 k2, PS) | 24% | –
GAGGAAGTGAGTCTCA (sugars k3 d10 k3, PS) | 0% | –
TGAGTCATGGGCTGAG (sugars kddddddddkekekdd, PS) | 0% | –
CCATTCTATGCCTTTT (sugars k2 d8 e4 k2, PS) | 17% | –
TCTGATATGATACCTA (sugars k3 d10 k3, linkages s4 [mop]1 s10) | – | target mRNA inhibition (A-431, 0.00412 µM): 10%; target mRNA inhibition (A-431, 0.01225 µM): 14%; target mRNA inhibition (A-431, 0.03704 µM): 43%; target mRNA inhibition (A-431, 0.11111 µM): 66%; target mRNA inhibition (A-431, 0.33333 µM): 80%; target mRNA inhibition (A-431, 1 µM): 87%
TCTGATATGATACCTA (sugars k3 d10 k3, linkages s5 [mop]1 s9) | – | target mRNA inhibition (A-431, 0.00412 µM): 10%; target mRNA inhibition (A-431, 0.01225 µM): 6%; target mRNA inhibition (A-431, 0.03704 µM): 38%; target mRNA inhibition (A-431, 0.11111 µM): 56%; target mRNA inhibition (A-431, 0.33333 µM): 71%; target mRNA inhibition (A-431, 1 µM): 77%
CTGAUATGATACCTAA (sugars k3 d1 m1 d8 k3, PS) | – | target mRNA inhibition (A-431, 0.00412 µM): 6%; target mRNA inhibition (A-431, 0.01225 µM): 23%; target mRNA inhibition (A-431, 0.03704 µM): 41%; target mRNA inhibition (A-431, 0.11111 µM): 64%; target mRNA inhibition (A-431, 0.33333 µM): 82%; target mRNA inhibition (A-431, 1 µM): 82%
GTTATCTCCGTCCTGG (sugars k3 d9 k3 e1, PS) | 33% | –
AGCTTGGTCTTGACCT (sugars kkkdddddddddkeke, PS) | 26% | –
CGGTCTTTGAGGTCTG (sugars kkddddddddkekekk, PS) | 33% | –
CCCAATGCAACATCCA (sugars kekdddddddddeekk, PS) | 0% | –
AGGTTCTTGGACTCTC (sugars kdddddddddkekeke, PS) | 0% | –
ATGAGTAATAGGAGTG (sugars k3 d10 k3, PS) | 56% and 52% | target mRNA inhibition (KARPAS-229, 0.44444 µM): 15%; target mRNA inhibition (KARPAS-229, 1.33333 µM): 46%; target mRNA inhibition (KARPAS-229, 12 µM): 70%
CAATGCAACATCCATC (sugars kddddddddddkekek, PS) | 0% | –

Sequence | target mRNA inhibition (KARPAS-229, 4 µM) | further results
TGAGTAGGACGAGTTA (sugars k3 d10 k3, PS) | 18% | –
ACCACTGTGTACCCCA (sugars kddddddddddkekek, PS) | 43% | –
CCTTCTGCAGGGAGTC (sugars kkddddddddkekekk, PS) | 0% | –
GTCATGGAATTTTGTG (sugars k3 d10 k3, PS) | 54% | –
CCCAATGCAACATCCA (sugars kkddddddddddkeke, PS) | 0% | –
TAAACCATTCTATGCC (sugars k3 d10 k3, PS) | 9% | –
GGTCTTTGAGGTCTGG (sugars kkkddddddddkekek, PS) | 46% | –
GTGTATTTCCCTGTCT (sugars kkkddddddddkekek, PS) | 0% | –
GCTTGGTCTTGACCTC (sugars kkkdddddddddkeke, PS) | 35% | –
CTTGGTCTTGACCTCC (sugars kddddddddddkekek, PS) | 0% | –
GAGTCATGGGCTGAGG (sugars kkkddddddddkekek, PS) | 0% | –
CGGTCTTTGAGGTCTG (sugars k3 d9 k3 e1, PS) | 32% | –
GGTCTTGACCTCCCGC (sugars kkddddddddkekekk, PS) | 44% | –
AGGTTCTTGGACTCTC (sugars kkkddddddddkekek, PS) | 8% | –
TTGTCTAGTGTCATGG (sugars kkddddddddkekekk, PS) | 0% | –
CTTCTGCAGGGAGTCA (sugars k2 d8 e4 k2, PS) | 0% | –
GTGAGTCTCAAACCAG (sugars kddddddddddkekek, PS) | 0% | –
CTGATATGATACCTAA (sugars k3 d2 m1 d7 k3, PS) | – | target mRNA inhibition (A-431, 0.00412 µM): 1%; target mRNA inhibition (A-431, 0.01225 µM): 14%; target mRNA inhibition (A-431, 0.03704 µM): 31%; target mRNA inhibition (A-431, 0.11111 µM): 56%; target mRNA inhibition (A-431, 0.33333 µM): 74%; target mRNA inhibition (A-431, 1 µM): 79%
GAATTTTGTGACTGTA (sugars k3 d10 k3, PS) | 57% and 67% | target mRNA inhibition (KARPAS-229, 0.44444 µM): 41%; target mRNA inhibition (KARPAS-229, 1.33333 µM): 66%; target mRNA inhibition (KARPAS-229, 12 µM): 78%
TCCAATTTTGCATTCC (sugars k3 d10 k3, PS) | 78% and 79% | target mRNA inhibition (KARPAS-229, 0.44444 µM): 38%; target mRNA inhibition (KARPAS-229, 1.33333 µM): 66%; target mRNA inhibition (KARPAS-229, 12 µM): 83%
AAGGGCACAGCGCAGG (sugars kddddddddddkekek, PS) | 0% | –
GCACTGACACAGGCGG (sugars kddddddddddkekek, PS) | 0% | –

Sequence | target mRNA inhibition (KARPAS-229, 4 µM) | further results
GCATTCCATATACACA (sugars kkddddddddddkeke, PS) | 37% | –
TCCAATTTTGCATTCC (sugars kkkddddddddkekek, PS) | 51% | –
GTTATCTCCGTCCTGG (sugars kdddddddddkekeke, PS) | 0% | –
CACTGACACAGGCGGA (sugars kkkdddddddddkeke, PS) | 0% | –
TCCAATTTTGCATTCC (sugars kkddddddddddkeke, PS) | 40% | –
GGTCTTGACCTCCCGC (sugars kdddddddddkekeke, PS) | 35% | –
CTTCTGCAGGGAGTCA (sugars kkddddddddkekekk, PS) | 0% | –
AGATGGTGTTATCTCC (sugars kkkddddddddkdkdk, PS) | 0% | –
GCTGTCACATCTCCAC (sugars kdddddddddkekeke, PS) | 0% | –
CTTGGTCTTGACCTCC (sugars k3 d10 k3, PS) | 41% | –
TTATCTCCGTCCTGGC (sugars k2 d8 e4 k2, PS) | 0% | –
TGAGTCATGGGCTGAG (sugars kekdddddddddeekk, PS) | 12% | –
TAGGAGTGAGACGAGC (sugars k3 d10 k3, PS) | 1% | –
TTATTTCTGCTCCAGG (sugars kdddddddddkekeke, PS) | 0% | –
CCACTGTGTACCCCAT (sugars k2 d9 e3 k2, PS) | 64% | –
CACATCTCCACATCAG (sugars kkddddddddkekekk, PS) | 17% | –
GGTGTATTTCCCTGTC (sugars kkkdddddddddkeke, PS) | 0% | –
TGAGTCATGGGCTGAG (sugars k2 d8 e4 k2, PS) | 15% | –
GTCTGGCCCTTTTGGA (sugars kkddddddddddkeke, PS) | 0% | –
GGAGTGAGACGAGCAA (sugars k2 d8 e4 k2, PS) | 17% | –
GAGTCATGGGCTGAGG (sugars kkdddddddddkekek, PS) | 15% | –
GGAAGTGAGTCTCAAA (sugars kkdddddddddkdkdk, PS) | 12% | –

Sequence | target mRNA inhibition (KARPAS-229, 4 µM) | further results
AGGAGTGAGACGAGCA (sugars kkddddddddddkeke, PS) | 28% | –
TTATCTCCGTCCTGGC (sugars k2 d9 e3 k2, PS) | 5% | –
TGAGTCATGGGCTGAG (sugars kkkddddddddkekek, PS) | 0% | –
TAAGGGCACAGCGCAG (sugars k3 d10 k3, PS) | 0% | –
GGAAGTGAGTCTCAAA (sugars k3 d10 k3, PS) | 51% and 68% | target mRNA inhibition (KARPAS-229, 0.44444 µM): 27%; target mRNA inhibition (KARPAS-229, 1.33333 µM): 39%; target mRNA inhibition (KARPAS-229, 12 µM): 79%
AGGAAGTGAGTCTCAA (sugars kdddddddddkekeke, PS) | 23% | –
TGTCTAGTGTCATGGA (sugars kkdmdddddddeeekk, PS) | – | target mRNA inhibition (A-431, 0.00412 µM): 0%; target mRNA inhibition (A-431, 0.01225 µM): 11%; target mRNA inhibition (A-431, 0.03704 µM): 5%; target mRNA inhibition (A-431, 0.11111 µM): 15%; target mRNA inhibition (A-431, 0.33333 µM): 25%; target mRNA inhibition (A-431, 1 µM): 33%
TGTCTAGTGTCATGGA (sugars kkdddddddddkekek, PS) | 44% | –
TGAGTCTCAAACCAGG (sugars kkdddkddddkekekk, PS) | 0% | –
CCAATTTTGCATTCCA (sugars kkddddddddkekekk, PS) | 39% | –
GCTGTCACATCTCCAC (sugars kkddddddddddkeke, PS) | 8% | –
CAGGGAGTCAGACCTA (sugars k3 d10 k3, PS) | 0% | –
TATTTCTGCTCCAGGT (sugars kkkddddddddkekek, PS) | 24% | –
CGGTGTATTTCCCTGT (sugars k3 d10 k3, PS) | 0% | –
CCTATACAGCTAGGCC (sugars k3 d10 k3, PS) | 0% | –
CAGGTTCTTGGACTCT (sugars k3 d9 k3 e1, PS) | 0% | –
TCCAATTTTGCATTCC (sugars kkdddddddddkekek, PS) | 29% | –
AGTAGGACGAGTTATG (sugars k3 d10 k3, PS) | 0% | –
AAGGGCACAGACGCAGG (sugars k3 d10 k3 d1, PS) | 0% | –
GCATTCCATATACACA (sugars kkdddddddddkekek, PS) | 2% | –
TGCCTTCTGCAGGGAG (sugars k3 d10 k3, PS) | 0% | –
ATGCAACATCCATCAA (sugars k3 d10 k3, PS) | 0% | –
